Reference: patent US10301308B2, “Azetidine derivatives for tau imaging” (Eli Lilly and Company, priority 2015, dated 2019)
pKd, pKi: −log10 of the molar value.

What was measured:
[1] = tested on: native tau aggregates vs native β-amyloid aggregates in human brain sections; experiment: Autoradiography selectivity towards tau versus β amyloid in AD human brain tissue; type: binding; details: for selectivity ratio for Tau:Aβ: 5 Tau+Aβ+ and 2 Tau-Aβ+ brain specimens; for grey matter to white matter (GM/WM) signal ratio: autoradiography, Tau+Aβ+ brain specimens; for binding sites observed in autoradiography: human brain sections Groups A, B, C
Description: Based on the anti-tau and anti-amyloid immunostaining results of brain sections, three groups of human brain sections are selected for autoradiography experiments to determine the native tau-binding selectivity of 3-(3-[18F]-fluoroazetidin-1-yl)-8-methylbenzo[4,5]imidazo[1,2-a]pyridine. Group A are tau-rich AD brain slices (labeled as Tau+Aβ+), Group B are tau-poor AD brain slices (marked as Tau-Aβ+), and Group C are Tau-Aβ− normal brain slices. […] The human AD brain sections in Group B are #33562, #32656, #33998, #35682, and #33563. The normal human brain sections in group C are #29092 and #32566. Tissue slices from the same donors are used to calculate selectivity for all three compounds for testing according to Assay Example 5. Autoradiography is performed for each of these three groups of brains on adjacent 10 μm sections with the amyloid tracer [18F]W372 to quantify the β-amyloid burden. [18F]W372 is a selective amyloid binding tracer discovered by Siemens and evaluated under IND 105173. Sections are covered with 0.5 ml of 3-(3-[18F]-fluoroazetidin-1-yl)-8-methylbenzo[4,5]imidazo[1,2-a]pyridine (in 2.5:2.5:95 DMSO:EtOH:1×PBS, about 20 μCi/slide) and incubated for 1.5 hrs. Then successive washing cycles (1 min PBS, 2 min 30% EtOH/PBS, 2 min 70% EtOH/PBS, 1 min PBS) are employed to remove any unbound tracer. The sections are air dried, placed on a phosphorimaging plate (Fuji IP plate), and exposed overnight. The IP plate is read using a GE Healthcare Life Sciences Typhoon FLA 7000 Phosphorimager. The signal intensity of the grey matter is measured using Fujifilm Multi Gauge software. After subtracting the background signal (signal in the cortex region of Group C), the signal of individual sections of Group A and B are normalized with corresponding signal from autoradiography of the respective adjacent sections with [18F]W372. The calculations are based on Group B brain sections #32656 and #33998, which have undetectable tau pathology by immunohistochemistry. The normalized signal for 3-(3-[18F]-fluoroazetidin-1-yl)-8-methylbenzo[4,5]imidazo[1,2-a]pyridine in Group B brain sections is the relative signal level of 3-(3-[18F]-fluoroazetidin-1-yl)-8-methylbenzo[4,5]imidazo[1,2-a]pyridine to [F-18]W372 resulting from binding to native β-amyloid aggregates. The binding level of 3-(3-[18F]-fluoroazetidin-1-yl)-8-methylbenzo[4,5]imidazo[1,2-a]pyridine to native tau-aggregates in Group A sections is estimated by subtracting the amount of the total signal attributable to binding to 3-amyloid (calculated by multiplying the total signal from [18F]W372 binding to β-amyloid in the adjacent section by the relative signal of 3-(3-[18F]-fluoroazetidin-1-yl)-8-methylbenzo[4,5]imidazo[1,2-a]pyridine to [18F]W372 determined from the Group B sections). The resulting difference is then divided by the signal attributable to binding to β-amyloid to estimate the selectivity of 3-(3-[18F]-fluoroazetidin-1-yl)-8-methylbenzo[4,5]imidazo[1,2-a]pyridine. […] The selectivity of 3-(3-[18F]-fluoroazetidin-1-yl)-8-methylbenzo[4,5]imidazo[1,2-a]pyridine binding to native tau aggregates vs. binding native β-amyloid aggregates is reflected by the ratio of Group A (Tau+Aβ+) signal to the signal of the brain sections #32656 and #33998.

[2] = Mouse PET/CT time activity curves; type: in vivo, CD-1 wild type mice; details: mouse PET/CT time activity curves
Procedure: Dynamic Micro-Positron Emission Tomography (mPET) images are obtained from CD-1 wild type mice using 3-(3-[18F]-fluoroazetidin-1-yl)-8-methylbenzo[4,5]imidazo[1,2-a]pyridine. Micro-Computed Tomography (mCT) of each subject is used as anatomical reference for image analysis. Biodistribution of the tracer in brain, muscle, bone, liver, and kidney is assessed by generating Time Activity Curves (TAC) using the fused mPET/mCT images. An INVEON multimodality scanner (Siemens, Germany) is used for mPET/mCT. All animal work is performed in accordance with the University of Sciences Institutional Animal Care & Use Committee-approved procedures.
Animals are anesthetized with 3% isoflurane/97% oxygen and are placed on the scanner bed. A short high-resolution CT scan is first performed for anatomical registration, followed by a 120-minute PET scan. During the PET scan a water heating system is placed underneath the bed to help maintain the body temperature. Within 3 minutes after the beginning of the PET acquisition, the [18F]-labeled compound 3-(3-[18F]-fluoroazetidin-1-yl)-8-methylbenzo[4,5]imidazo[1,2-a]pyridine is administered to the animals via tail vein injection (250 uCi in a total volume of 200 uL saline). A PET image is generated for each minute of the acquisition time. Uptake of the tracer is obtained by visually drawing regions of interest based on the fused PET/CT images, and the corresponding activity values are determined using the INVEON Research Workplace software (Siemens, Germany). All values are represented as percent injected dose per gram (% ID/g).
The mouse PET/CT time activity curves of 3-(4-(2-[18F]-fluoroethyl)piperidin-1-yl)-8-methoxybenzo[4,5]imidazo[1,2-a]pyridine (T821) (See FIG. 9) and of 3-(4-[18F]-fluoropiperidin-1-yl)-8-methoxybenzo[4,5]imidazo[1,2-a]pyridine (T798) (See FIG. 10) are obtained as described in Assay Example 7 (T821 and T798 are recited in US2011/0182812). […] Therefore, when imaging with T821 and/or T798, the undesirable non-tau PET signals from the skull bones could interfere with desired tau signals from the brain cortex. Thus, in addition to the lack of selectivity for T821 and T798, these compounds would further represent poor candidates for human brain tau PET tracers because of the interfering radioactivity signal from bone. […] The advantageous properties of Compound 8 are useful to provide enhanced tau PET imaging in humans. This combination of critical properties was not known and could not have been predicted from existing tau imaging compounds.

[3] = biological target: PHF (tau from Alzheimer's disease donors) (Homo sapiens, UniProt P10636); experiment: Competition radioligand binding versus [18F]AV-1451 on PHF (Ki determination)
Sequence of PHF (tau from Alzheimer's disease donors) (P10636 623-695 limits assumed): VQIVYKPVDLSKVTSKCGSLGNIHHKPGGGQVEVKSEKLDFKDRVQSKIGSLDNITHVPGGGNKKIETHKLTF
Description: Purified, soluble PHF is isolated from AD brain tissue using a protocol modified from the procedure described by Jicha, et al. (G. A. Jicha, A. O'Donnell, C. Weaver (1999) “Hierarchical phosphorylation of recombinant tau by the paired-helical filament-associated protein kinase is dependent on cyclic AMP-dependent protein kinase” J Neurochem. 72(1):214). Briefly, AD cortex is homogenized using a handheld Kinematica Polytron, followed by high pressure batch—gas expansion using a Parr Cell disruption bomb. Crude homogenate is centrifuged at 28 kg to pellet cell debris. Soluble PHF is isolated from the supernatant by affinity chromatography over an Affigel-10 column on which the tau antibody MCI, which recognizes a pathological conformation of tau, has been immobilized (G. A. Jicha, R. Bowser, I. G. Kazam (1997), “Alz-50 and MC-1, a new monoclonal antibody raised to paired helical filaments, recognize conformational epitopes on recombinant tau” J Neurosci Res. 48(2): 12.)
The IC50 (i.e. the molar concentration of competing ligand which reduces the specific binding of a radioligand by 50%) for the unlabeled compound is determined by competition radioligand binding, in which the binding of [18F]AV-1451 to PHF is competed with unlabeled compound at various concentrations. […]

tau protein = experiment: Clinical PET imaging of tau protein in the brain (SUVr); type: in vivo, human; details: AD subjects vs healthy controls
Procedure: (§1) Clinical evaluation of 3-(3-[18F]-Fluoroazetidin-1-yl)-8-methylbenzo[4,5]imidazo[1,2-a]pyridine (Compound 8) as a PET radioligand for imaging tau protein deposition in patients with AD or other neurodegenerative disorders is conducted in healthy volunteers. AD patients, or Chronic Traumatic Encephalopathy (CTE) subjects, by completion of one or more PET scans with Compound 8. Dynamic PET imaging is acquired on a Siemens ECAT EXACT HR+ over 150 minutes following Compound 8 or [18F]AV-1451 injection (0-60 and 90-150 minute imaging segments). Compound 8 or [18F]AV-1451 scans are acquired similarly in two imaging sessions. A brain MRI is also obtained. PET and MRI images are aligned and normalized, and ATLAS-based volumes of interest (VOI) are applied to the dynamic PET series. Compound 8 or [18F]AV-1451 are evaluated in terms of kinetic profile as well as target region to cerebellum standardized uptake value ratio (SUVr between 100-120 min) between healthy volunteers and AD or CTE subjects.

[4] = Clinical PET kinetic profile: brain uptake, washout, metabolism; type: in vivo, human; details: human subjects, dynamic PET
Procedure: as §1

SMILES | selectivity ratio for Tau:Aβ [1] | grey matter to white matter (GM/WM) signal ratio [1] | binding sites observed in autoradiography [1] | bone uptake of radioactivity [2] | pKd ([3]; value used in the Cheng-Prusoff equation, read-out: Kd, dissociation constant of the radioligand) | uptake in cortical brain regions, AD subjects compared with healthy controls (tau protein) | peak brain uptake [4] | pKi ([3]; tau obtained from donors with Alzheimer's disease, from IC50 by Cheng-Prusoff)
COc1ccc2nc3cc(N4CCC([18F])CC4)ccn3c2c1 [Compound T798, 3-(4-[18F]-fluoropiperidin-1-yl)-8-methoxybenzo[4,5]imidazol[1,2-a]pyridine, reference compound] | approximately 8.4±1.7 | approximately 18.0±3.2 | binds to tau, amyloid, and unidentified binding sites in normal human brain | bone uptake of radioactivity increases with time |  |  |  | 
[18F]c1ccc(-c2ccc3c(c2)[nH]c2ccncc23)cn1 [[18F]AV-1451, reference compound] |  |  |  |  | 9.24 | Higher uptake | ~6 SUV | 
COc1ccc2nc3cc(N4CCC(CC[18F])CC4)ccn3c2c1 [Compound T821, 3-(4-(2-[18F]-fluoroethyl)piperidin-1-yl)-8-methoxybenzo[4,5]imidazo[1,2-a]pyridine, reference compound] | approximately 2.22±0.45 | approximately 11.7±1.2 | binds to tau, amyloid, and unidentified binding sites in normal human brain | bone uptake of radioactivity increases with time |  |  |  | 
Cc1ccc2nc3cc(N4CC(F)C4)ccn3c2c1 [Compound 4, 3-(3-fluoroazetidin-1-yl)-8-methylbenzo[4,5]imidazo[1,2-a]pyridine] |  |  |  |  |  |  |  | 9.22
